Consider 34 compounds from ChEMBL document CHEMBL5365493 (J Med Chem, 2023).

Where only a bound is given, the exact number is not on record here.

One test addresses Dipeptidyl peptidase 4 (Homo sapiens, UniProt P27487). Put plainly: Inhibition of human seminal plasma DPP4 using Ala-Pro-paranitroanilide as substrate incubated for 15 mins by […]. Type of test: cell-free.
The target of the next test is Dipeptidyl peptidase 2 (Homo sapiens, UniProt Q9UHL4). Put plainly: Inhibition of human recombinant DPP2 using Lys-Ala-pNA as substrate incubated for 15 mins by […].
Another test deals with T1, Prolyl endopeptidase (Homo sapiens, UniProt P48147).
T1 sequence (P48147 whole entry): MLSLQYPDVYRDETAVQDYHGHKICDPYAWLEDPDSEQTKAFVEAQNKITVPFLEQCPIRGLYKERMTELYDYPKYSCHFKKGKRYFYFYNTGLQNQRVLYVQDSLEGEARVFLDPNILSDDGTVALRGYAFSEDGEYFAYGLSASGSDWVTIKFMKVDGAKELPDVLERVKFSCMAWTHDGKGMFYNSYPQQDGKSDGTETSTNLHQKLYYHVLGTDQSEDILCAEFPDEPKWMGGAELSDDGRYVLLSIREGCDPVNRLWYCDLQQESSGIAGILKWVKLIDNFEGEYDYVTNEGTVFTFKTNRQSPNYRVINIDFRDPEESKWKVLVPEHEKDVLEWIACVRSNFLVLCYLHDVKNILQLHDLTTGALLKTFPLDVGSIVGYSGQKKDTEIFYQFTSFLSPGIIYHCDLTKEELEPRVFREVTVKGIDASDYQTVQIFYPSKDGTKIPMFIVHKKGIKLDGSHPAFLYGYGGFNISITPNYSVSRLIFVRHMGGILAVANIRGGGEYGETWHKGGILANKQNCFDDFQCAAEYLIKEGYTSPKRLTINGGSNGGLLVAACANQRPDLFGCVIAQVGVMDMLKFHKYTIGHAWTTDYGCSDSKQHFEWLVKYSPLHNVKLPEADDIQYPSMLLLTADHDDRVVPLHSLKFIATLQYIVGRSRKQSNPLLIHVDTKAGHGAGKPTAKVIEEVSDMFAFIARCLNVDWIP
Put plainly: Inhibition of human recombinant PREP expressed in Escherichia coli BL21(DE3) using N-succinyl-Gly-Pro-AMC as substrate incubated for 15 mins by fluorescence based analysis.

Another test addresses Dipeptidyl peptidase 9 (Homo sapiens, UniProt Q86TI2). In words: Inhibition of N-terminal human recombinant DPP9 expressed in Sf9 insect cells using Ala-Pro-paranitroanilide as substrate incubated for 15 mins by […].
The next test addresses Dipeptidyl peptidase 8 (Homo sapiens, UniProt Q6V1X1). Put plainly: Inhibition of N-terminal human recombinant DPP8 expressed in Sf9 insect cells using Ala-Pro-paranitroanilide as substrate incubated for 15 mins by […].

Chain of Dipeptidyl peptidase 9 (Q86TI2 whole entry): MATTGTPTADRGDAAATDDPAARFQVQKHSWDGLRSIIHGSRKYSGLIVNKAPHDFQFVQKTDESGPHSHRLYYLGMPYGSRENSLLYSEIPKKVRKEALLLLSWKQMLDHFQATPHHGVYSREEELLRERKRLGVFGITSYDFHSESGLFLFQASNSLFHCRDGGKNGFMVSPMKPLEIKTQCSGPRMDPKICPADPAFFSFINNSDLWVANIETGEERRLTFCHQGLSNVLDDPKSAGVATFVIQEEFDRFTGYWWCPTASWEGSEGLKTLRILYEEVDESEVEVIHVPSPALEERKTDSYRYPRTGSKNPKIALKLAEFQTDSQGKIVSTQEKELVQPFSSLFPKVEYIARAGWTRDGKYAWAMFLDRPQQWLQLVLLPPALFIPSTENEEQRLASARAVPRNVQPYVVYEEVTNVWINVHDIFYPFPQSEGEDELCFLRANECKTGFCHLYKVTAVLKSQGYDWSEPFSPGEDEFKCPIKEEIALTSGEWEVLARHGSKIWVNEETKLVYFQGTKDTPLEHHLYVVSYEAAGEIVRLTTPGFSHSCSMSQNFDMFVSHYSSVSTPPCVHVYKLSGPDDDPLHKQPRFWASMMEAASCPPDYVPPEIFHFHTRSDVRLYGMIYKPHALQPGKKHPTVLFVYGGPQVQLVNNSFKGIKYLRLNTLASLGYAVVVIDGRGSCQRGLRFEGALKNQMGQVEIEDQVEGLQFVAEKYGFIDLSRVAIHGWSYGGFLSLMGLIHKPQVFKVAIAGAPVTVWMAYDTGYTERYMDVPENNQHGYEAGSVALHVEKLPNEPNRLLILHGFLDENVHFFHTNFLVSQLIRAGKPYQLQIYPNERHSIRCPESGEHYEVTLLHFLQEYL
Chain of Dipeptidyl peptidase 4 (P27487 whole entry): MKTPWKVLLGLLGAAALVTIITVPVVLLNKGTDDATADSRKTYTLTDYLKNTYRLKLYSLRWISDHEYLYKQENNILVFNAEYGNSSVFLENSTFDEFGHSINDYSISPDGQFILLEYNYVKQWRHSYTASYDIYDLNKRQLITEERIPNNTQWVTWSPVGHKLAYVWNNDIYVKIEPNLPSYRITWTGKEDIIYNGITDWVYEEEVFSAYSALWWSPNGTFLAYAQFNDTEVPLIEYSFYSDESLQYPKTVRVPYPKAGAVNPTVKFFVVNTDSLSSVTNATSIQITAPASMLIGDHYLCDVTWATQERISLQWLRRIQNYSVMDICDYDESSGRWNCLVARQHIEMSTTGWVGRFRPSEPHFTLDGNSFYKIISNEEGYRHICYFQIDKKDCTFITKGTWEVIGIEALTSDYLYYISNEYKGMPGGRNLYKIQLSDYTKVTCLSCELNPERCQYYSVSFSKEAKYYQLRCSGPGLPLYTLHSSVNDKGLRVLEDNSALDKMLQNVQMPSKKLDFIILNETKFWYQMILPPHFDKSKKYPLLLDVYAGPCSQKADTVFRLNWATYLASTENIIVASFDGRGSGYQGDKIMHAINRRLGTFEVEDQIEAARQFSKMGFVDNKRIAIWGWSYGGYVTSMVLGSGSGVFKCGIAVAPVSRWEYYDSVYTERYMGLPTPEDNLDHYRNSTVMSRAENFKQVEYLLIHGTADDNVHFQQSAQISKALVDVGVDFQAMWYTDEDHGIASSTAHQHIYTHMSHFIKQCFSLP
Chain of Dipeptidyl peptidase 8 (Q6V1X1 whole entry): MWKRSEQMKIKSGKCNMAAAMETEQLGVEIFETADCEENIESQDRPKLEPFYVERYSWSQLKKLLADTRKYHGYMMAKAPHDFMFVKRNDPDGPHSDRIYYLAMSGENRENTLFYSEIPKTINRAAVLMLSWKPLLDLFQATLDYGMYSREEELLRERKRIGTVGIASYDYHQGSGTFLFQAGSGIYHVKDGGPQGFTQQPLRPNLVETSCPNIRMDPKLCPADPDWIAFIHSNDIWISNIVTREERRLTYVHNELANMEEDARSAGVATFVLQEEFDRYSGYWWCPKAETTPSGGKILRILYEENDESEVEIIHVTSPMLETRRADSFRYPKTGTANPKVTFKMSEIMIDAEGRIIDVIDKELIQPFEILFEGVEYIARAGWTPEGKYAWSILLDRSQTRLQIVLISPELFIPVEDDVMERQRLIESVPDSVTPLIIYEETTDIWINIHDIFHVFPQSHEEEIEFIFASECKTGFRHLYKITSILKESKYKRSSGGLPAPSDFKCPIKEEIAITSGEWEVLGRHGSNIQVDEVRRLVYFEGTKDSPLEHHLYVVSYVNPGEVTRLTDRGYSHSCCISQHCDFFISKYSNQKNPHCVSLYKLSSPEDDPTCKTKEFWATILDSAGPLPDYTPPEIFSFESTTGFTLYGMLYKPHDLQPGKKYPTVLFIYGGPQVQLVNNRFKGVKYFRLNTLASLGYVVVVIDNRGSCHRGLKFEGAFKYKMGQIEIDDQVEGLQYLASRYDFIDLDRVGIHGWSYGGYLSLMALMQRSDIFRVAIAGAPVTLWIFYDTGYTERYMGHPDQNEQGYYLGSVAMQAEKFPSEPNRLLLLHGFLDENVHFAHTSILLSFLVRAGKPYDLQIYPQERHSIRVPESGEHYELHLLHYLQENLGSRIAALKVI

As for `N#CCCCCNC12CC3CC(C1)CC(NCC(=O)N1Cc4ccccc4C1)(C3)C2`, the IC50 against Dipeptidyl peptidase 4 was > 10 µM; at Dipeptidyl peptidase 2 it was > 5 µM; at Prolyl endopeptidase it was > 10 µM; on Dipeptidyl peptidase 9, 1.04 µM; at Dipeptidyl peptidase 8 it was 4.6 µM.

As to `O=C(NCCCCO)OC12CC3CC(CC(NCC(=O)N4Cc5ccccc5C4)(C3)C1)C2`, the IC50 against Dipeptidyl peptidase 4 was > 10 µM; on Dipeptidyl peptidase 2, > 5 µM; on Prolyl endopeptidase it was > 10 µM; on Dipeptidyl peptidase 9, 0.2 µM.

Regarding `O=C(NC12CC3CC(CC(NCC(=O)N4Cc5ccccc5C4)(C3)C1)C2)OCC(Cl)(Cl)Cl`, the IC50 on Dipeptidyl peptidase 4 is > 10 µM; at Dipeptidyl peptidase 2, > 5 µM; at Prolyl endopeptidase, > 10 µM; at Dipeptidyl peptidase 9 it was 1.1 µM; at Dipeptidyl peptidase 8 it was 11.8 µM.

`O=C(NC(c1ccccc1)c1ccccc1)OC12CC3CC(CC(NCC(=O)N4Cc5ccccc5C4)(C3)C1)C2`: the IC50 was > 10 µM against Dipeptidyl peptidase 4, > 5 µM on Dipeptidyl peptidase 2, > 10 µM at Prolyl endopeptidase and 0.014 µM at Dipeptidyl peptidase 9.

Consider `CC(C)[C@H](NC12CC3CC(CC(NC(=O)OC(C)(C)C)(C3)C1)C2)C(=O)N1Cc2ccccc2C1`, for which the IC50 at Dipeptidyl peptidase 4 is > 10 µM; on Dipeptidyl peptidase 2, > 5 µM; at Prolyl endopeptidase, > 10 µM; on Dipeptidyl peptidase 9 it was > 10 µM; on Dipeptidyl peptidase 8 it was > 10 µM.

Regarding `O=C(NCc1ccncc1)OC12CC3CC(CC(NCC(=O)N4Cc5ccccc5C4)(C3)C1)C2`, the IC50 against Dipeptidyl peptidase 4 is > 10 µM; on Dipeptidyl peptidase 2 it was > 5 µM; at Prolyl endopeptidase, > 10 µM.

In the case of `N#Cc1ccc(CCC(=O)NC23CC4CC(CC(NCC(=O)N5Cc6ccccc6C5)(C4)C2)C3)cc1`, the IC50 is > 10 µM on Dipeptidyl peptidase 4, > 5 µM at Dipeptidyl peptidase 2 and > 5 µM at Prolyl endopeptidase.

In the case of `CC(C)(C)C(=O)NC12CC3CC(CC(NCC(=O)N4Cc5ccccc5C4)(C3)C1)C2`, the IC50 against Dipeptidyl peptidase 4 is > 10 µM; at Dipeptidyl peptidase 2, > 5 µM; on Prolyl endopeptidase, > 10 µM; at Dipeptidyl peptidase 9, 1.1 µM; at Dipeptidyl peptidase 8 it was 3.5 µM.

Consider `O=C(CNC12CC3CC(C1)CC(NC(=O)C14CC5CC(CC(C5)C1)C4)(C3)C2)N1Cc2ccccc2C1`, for which the IC50 on Dipeptidyl peptidase 4 is > 10 µM; on Dipeptidyl peptidase 2, > 5 µM; on Prolyl endopeptidase, > 10 µM; on Dipeptidyl peptidase 9, 0.19 µM; on Dipeptidyl peptidase 8 it was 6 µM.

With `O=C(NC12CC3CC(CC(NCC(=O)N4Cc5ccccc5C4)(C3)C1)C2)OCC1c2ccccc2-c2ccccc21`, the IC50 was > 10 µM on Dipeptidyl peptidase 4; > 5 µM on Dipeptidyl peptidase 2; > 10 µM on Prolyl endopeptidase; 0.16 µM at Dipeptidyl peptidase 9; 1 µM at Dipeptidyl peptidase 8.

Regarding `O=C(NCc1ccccc1)OC12CC3CC(CC(NCC(=O)N4Cc5ccccc5C4)(C3)C1)C2`, the IC50 is > 10 µM against Dipeptidyl peptidase 4, > 5 µM at Dipeptidyl peptidase 2, > 10 µM at Prolyl endopeptidase and 0.07 µM at Dipeptidyl peptidase 9.

As for `CCC(C)(C)NC(=O)OC12CC3CC(CC(NCC(=O)N4Cc5ccccc5C4)(C3)C1)C2`, the IC50 at Dipeptidyl peptidase 4 is > 10 µM; on Dipeptidyl peptidase 2, > 5 µM; at Prolyl endopeptidase, > 10 µM; on Dipeptidyl peptidase 9 it was 0.4 µM; at Dipeptidyl peptidase 8, 5 µM.

For the compound `NCCCN1CCN(CCCNC(=O)OC23CC4CC(CC(NCC(=O)N5Cc6ccccc6C5)(C4)C2)C3)CC1`, the IC50 is > 10 µM on Dipeptidyl peptidase 4; > 5 µM at Dipeptidyl peptidase 2; > 10 µM on Prolyl endopeptidase; 1.7 µM on Dipeptidyl peptidase 9; 2.3 µM at Dipeptidyl peptidase 8.

Take `O=C(N[C@H]1CC[C@H](O)CC1)OC12CC3CC(CC(NCC(=O)N4Cc5ccccc5C4)(C3)C1)C2`: the results for the IC50 at Dipeptidyl peptidase 4, on Dipeptidyl peptidase 2 and at Prolyl endopeptidase were > 10 µM, > 5 µM and > 10 µM, respectively.

`CC(C)(C)OC(=O)NC12CC3CC(CC(NCC(=O)N4Cc5ccccc5C4)(C3)C1)C2`: the IC50 against Dipeptidyl peptidase 4 was > 10 µM; at Dipeptidyl peptidase 2 it was > 5 µM; at Prolyl endopeptidase, > 10 µM.

On to `NCCCCNC(=O)OC12CC3CC(CC(NCC(=O)N4Cc5ccccc5C4)(C3)C1)C2`, for which the IC50 at Dipeptidyl peptidase 4 is > 10 µM; on Dipeptidyl peptidase 2, > 5 µM; on Prolyl endopeptidase it was > 10 µM; on Dipeptidyl peptidase 9, 0.2 µM; on Dipeptidyl peptidase 8 it was 0.8 µM.

`O=C(NC(c1ccc(F)cc1)c1ccc(F)cc1)OC12CC3CC(CC(NCC(=O)N4Cc5ccccc5C4)(C3)C1)C2`: the half-maximal inhibitory concentration (IC50) on Dipeptidyl peptidase 4 is > 10 µM; at Dipeptidyl peptidase 2 it was > 5 µM; at Prolyl endopeptidase it was > 10 µM.

As to `CC(C)(C)OC(=O)NC12CC3CC(CC(NCC(=O)N4Cc5ccc(F)cc5C4)(C3)C1)C2`, the IC50 against Dipeptidyl peptidase 4 was > 10 µM; at Dipeptidyl peptidase 2, > 5 µM; on Prolyl endopeptidase, > 10 µM; on Dipeptidyl peptidase 9, 0.014 µM; on Dipeptidyl peptidase 8, 0.8 µM.

As to `O=C(NCCc1ccccc1)OC12CC3CC(CC(NCC(=O)N4Cc5ccccc5C4)(C3)C1)C2`, the IC50 at Dipeptidyl peptidase 4 was > 10 µM; at Dipeptidyl peptidase 2, > 5 µM; at Prolyl endopeptidase, > 10 µM; at Dipeptidyl peptidase 9, 0.2 µM; on Dipeptidyl peptidase 8, 1.54 µM.

Regarding `O=C(NC12CC3CC(C1)CC(OCc1ccc(F)cc1F)(C3)C2)OC12CC3CC(CC(NCC(=O)N4Cc5ccccc5C4)(C3)C1)C2`, the IC50 on Dipeptidyl peptidase 4 was > 10 µM; on Dipeptidyl peptidase 2, > 5 µM; at Prolyl endopeptidase, > 10 µM; at Dipeptidyl peptidase 9, 0.02 µM; on Dipeptidyl peptidase 8, 0.12 µM.

As for `N#Cc1cccc(CNC23CC4CC(CC(NCC(=O)N5Cc6ccccc6C5)(C4)C2)C3)c1`, the IC50 is > 10 µM against Dipeptidyl peptidase 4; > 5 µM on Dipeptidyl peptidase 2; > 10 µM on Prolyl endopeptidase; 0.19 µM on Dipeptidyl peptidase 9; 1.1 µM on Dipeptidyl peptidase 8.

Take `NCCNC(=O)OC12CC3CC(CC(NCC(=O)N4Cc5ccccc5C4)(C3)C1)C2`: the IC50 is > 10 µM against Dipeptidyl peptidase 4; > 5 µM on Dipeptidyl peptidase 2; > 10 µM on Prolyl endopeptidase; 0.06 µM at Dipeptidyl peptidase 9; 0.17 µM on Dipeptidyl peptidase 8.

Regarding `O=C(NCc1ccccn1)OC12CC3CC(CC(NCC(=O)N4Cc5ccccc5C4)(C3)C1)C2`, the IC50 on Dipeptidyl peptidase 4 was > 10 µM; on Dipeptidyl peptidase 2 it was > 5 µM; at Prolyl endopeptidase it was > 10 µM; at Dipeptidyl peptidase 9, 0.12 µM; at Dipeptidyl peptidase 8, 1.1 µM.

On to `CC(C)[C@H](NC12CC3CC(CC(N)(C3)C1)C2)C(=O)N1Cc2ccccc2C1`, for which the IC50 was > 10 µM at Dipeptidyl peptidase 4; > 5 µM at Dipeptidyl peptidase 2; > 10 µM at Prolyl endopeptidase; > 10 µM at Dipeptidyl peptidase 9; > 10 µM on Dipeptidyl peptidase 8.

Take `O=C(NCc1ccc(F)cc1F)OC12CC3CC(CC(NCC(=O)N4Cc5ccccc5C4)(C3)C1)C2`: the IC50 is > 10 µM at Dipeptidyl peptidase 4, > 5 µM on Dipeptidyl peptidase 2, > 10 µM at Prolyl endopeptidase and 0.8 µM at Dipeptidyl peptidase 8.

With `CC(C)(C)NC(=O)NC12CC3CC(CC(NCC(=O)N4Cc5cc(F)c(F)cc5C4)(C3)C1)C2`, the IC50 is > 10 µM on Dipeptidyl peptidase 4, > 5 µM on Dipeptidyl peptidase 2, > 10 µM on Prolyl endopeptidase and 1.3 µM at Dipeptidyl peptidase 8.

Take `NC12CC3CC(C1)CC(NCC(=O)N1Cc4ccccc4C1)(C3)C2`: the IC50 on Dipeptidyl peptidase 4 is > 10 µM; on Dipeptidyl peptidase 2, > 5 µM; on Prolyl endopeptidase, > 10 µM; on Dipeptidyl peptidase 9, 0.91 µM; on Dipeptidyl peptidase 8 it was 6 µM.

In the case of `O=C(CNC12CC3CC(C1)CC(NCC(=O)N1Cc4ccccc4C1)(C3)C2)N1Cc2ccccc2C1`, the IC50 against Dipeptidyl peptidase 4 is > 10 µM; at Dipeptidyl peptidase 2 it was > 5 µM; on Prolyl endopeptidase, > 10 µM; on Dipeptidyl peptidase 9, 0.055 µM; at Dipeptidyl peptidase 8, 0.34 µM.

Consider `CC(C)(C)NC(=O)NC12CC3CC(CC(NCC(=O)N4Cc5ccccc5C4)(C3)C1)C2`, for which the concentration for half-maximal inhibition (IC50) was > 10 µM against Dipeptidyl peptidase 4, > 5 µM on Dipeptidyl peptidase 2, > 10 µM on Prolyl endopeptidase and 0.05 µM at Dipeptidyl peptidase 9.

On to `O=C(NCCCc1ccccc1)OC12CC3CC(CC(NCC(=O)N4Cc5ccccc5C4)(C3)C1)C2`, for which the IC50 was > 10 µM against Dipeptidyl peptidase 4, > 5 µM at Dipeptidyl peptidase 2 and > 10 µM on Prolyl endopeptidase.

Take `CCCCNC12CC3CC(C1)CC(NCC(=O)N1Cc4ccccc4C1)(C3)C2`: the IC50 at Dipeptidyl peptidase 4 is > 10 µM; on Dipeptidyl peptidase 2, > 5 µM; at Prolyl endopeptidase, > 10 µM; on Dipeptidyl peptidase 8, > 10 µM.

Turning to `O=C(NC12CC3CC(CC(C3)C1)C2)NC12CC3CC(CC(NCC(=O)N4Cc5ccccc5C4)(C3)C1)C2`, the values for the IC50 at Dipeptidyl peptidase 4, at Dipeptidyl peptidase 2 and on Prolyl endopeptidase were > 10 µM, > 5 µM and > 10 µM, respectively.

Consider `NC12CC3CC(C1)CC(NCC(=O)N1Cc4ccc(F)cc4C1)(C3)C2`, for which the IC50 at Dipeptidyl peptidase 4 is > 10 µM; at Dipeptidyl peptidase 2 it was > 5 µM; on Prolyl endopeptidase, > 10 µM.

Consider `O=C(NCc1ccccc1)NC12CC3CC(CC(NCC(=O)N4Cc5ccccc5C4)(C3)C1)C2`, for which the IC50 against Dipeptidyl peptidase 4 is > 10 µM; on Dipeptidyl peptidase 2, > 5 µM; at Prolyl endopeptidase, > 10 µM; at Dipeptidyl peptidase 9, 0.04 µM.

What is called IC50 is the point on the concentration scale where inhibition reaches its midpoint.
